Experimental data as given in patent publication US9212168B2 (priority 2011, dated 2015).

What follows are molecules tested on HCV genotype 1a replicon (assay: HCV genotype 1a replicon assay (NS3 protease activity readout)). Conditions: HCV genotype 1a replicon.
Format: cell-based, hepatitis C virus
Protocol: Assay 2: HCV Genotype 1a Replicon Assay
The HCV genotype 1a replicon cell line was obtained from Apath LLC (APC89; Huh7.5 cell background). This subgenomic replicon contains the N-terminus of the HCV core protein fused to the neomycin-resistance selectable marker. The EMCV IRES lies downstream and drives expression of the non-structural proteins NS3-NS5B. Compound potencies were determined using the NS3-specific protease activity in lysates as a measurement of compound inhibition of replicon levels.
Cells were grown at 37° C. in a 5% CO2 humidified incubator in DMEM (Invitrogen) with 10% FBS (HyClone), 1×NEAA (Invitrogen), 1× Pen-Strep (Invitrogen), and 850 μg/mL G418 (Invitrogen). On day 1 of the assay, cells were plated at 15,000 cells/well in black 96-well tissue culture plates (Costar) in 200 μL media lacking G418. Four hours later, once the cells had adhered, the media was removed and replaced with media (no G418) containing dose-responses of test compounds. Compounds were initially diluted in DMSO and then diluted another 200× in media to bring the final DMSO concentration down to 0.5%. The cells were incubated with test compounds for 48 or 72 hours. At the end of the incubation period, media and compound were removed from the plates.
To determine the NS3-specific protease activity in lysates, the cells were lysed at room temperature in 50 μL/well of 50 mM Hepes pH 7.5, 150 mM NaCl, 15% Glycerol, 0.15% Triton X-100, 10 mM DTT for 20 minutes with shaking. 50 μL of an NS3/4a protease-specific FRET substrate (Anaspec RET S1 Cat#22991) was then added to the wells at a final concentration of 15 μM. The plates were incubated at 37° C. for 20 minutes, which corresponds to a timepoint at which the protease activity is still in the linear phase. Protease activity was determined by measuring fluorescence (Excitation: 340 nm; Emission: 509 nm).
To analyze the data, the fluorescence was plotted vs. the compound concentration, and EC50 values were determined from a 4-parameter robust fit model using GraphPad Prism software.

Row | SMILES | Genotype 1a
1 | COC(=O)N[C@H](C(=O)N1C[C@@H](C)C[C@H]1c1nc(-c2ccc(-c3ccc(C(=O)Nc4ccc(N5CCN(C(=O)C6CC6)C[C@H]5C)nc4)cc3OC(F)(F)F)cc2)c[nH]1)C(C)C [Example 4-35] | C (C represents pEC50 between and 9 and about 10, (EC50 between 1 nM and 0.1 nM))
2 | COC(=O)N[C@H](C(=O)N1C[C@@H](OC)C[C@H]1c1nc(-c2ccc(-c3ccc(C(=O)Nc4ccc(N5CCN(C(=O)[C@H]6CC6(C)C)C[C@H]5C)nc4)cc3)cc2)c[nH]1)C1CCOCC1 [Example 22-15] | D (D represents pEC50>10 (EC50<0.1 nM))
3 | COC(=O)N[C@H](C(=O)N1C[C@@H](C)C[C@H]1c1nc(-c2ccc(-c3ccc(C(=O)Nc4ccc(N5CCN(C(=O)C6CC6(Cl)Cl)C[C@H]5C)nc4)cc3OC(F)(F)F)cc2)c(Cl)[nH]1)C(C)C (stereo partly drawn) [Example 4-30] | C (C represents pEC50 between and 9 and about 10, (EC50 between 1 nM and 0.1 nM))
4 | COC(=O)NC(C(=O)N1CC(OC)CC1c1nc(-c2ccc(-c3cc(F)c(NC(=O)c4ccc(N5CCN(C(=O)C(C)(C)CO)CC5C)nc4)cc3OC(F)(F)F)cc2)c[nH]1)C(C)O (stereo not drawn) [Example 16-12] | C (C represents pEC50 between and 9 and about 10, (EC50 between 1 nM and 0.1 nM))
5 | COC(=O)NC(C(=O)N1C[C@@H](OC)C[C@H]1c1nc(-c2ccc(-c3cc(Cl)c(NC(=O)c4ccc(N5CCN(C(=O)C(C)(C)CO)C[C@H]5C)nc4)cc3C(F)(F)F)cc2)c[nH]1)C1CCS(=O)(=O)CC1 (single isomer, unassigned) [Example 19-12] | D (D represents pEC50>10 (EC50<0.1 nM))
6 | COC(=O)NC(C(=O)N1CC(F)CC1c1nc(-c2ccc(-c3cc(Cl)c(NC(=O)c4ccc(N5CCN(C(=O)C(C)(C)C)CC5C)nc4)cc3OC(F)(F)F)cc2)c[nH]1)C1CCOCC1 (stereo not drawn) [Example 29-1] | D (D represents pEC50>10 (EC50<0.1 nM))
7 | COC(=O)N[C@H](C(=O)N1C[C@@H](C)C[C@H]1c1nc(-c2ccc(-c3cc(F)c(NC(=O)c4ccc(N5CCN(C(=O)NN(C)C)C[C@H]5C)nc4)cc3OC(F)(F)F)cc2)c[nH]1)C(C)C [Example 1-95] | C (C represents pEC50 between and 9 and about 10, (EC50 between 1 nM and 0.1 nM))
8 | CC[C@@H](C)C(=O)N1CCN(c2ccc(C(=O)Nc3cc(OC(F)(F)F)c(-c4ccc(-c5c[nH]c([C@@H]6C[C@H](C)CN6C(=O)[C@@H](NC(=O)OC)C(C)C)n5)cc4)cc3Cl)cn2)[C@H](C)C1 [Example 1-86] | D (D represents pEC50>10 (EC50<0.1 nM))
9 | COC(=O)N[C@H](C(=O)N1C[C@@H](C)C[C@H]1c1nc(-c2ccc(-c3cc(Cl)c(NC(=O)c4ccc(N5CCN(C(=O)C6CC6(Cl)Cl)C[C@H]5C)nc4)cc3OC(F)(F)F)cc2)c[nH]1)C(C)C (single isomer, unassigned) [Example 1-56] | D (D represents pEC50>10 (EC50<0.1 nM))
10 | COC(=O)N[C@H](C(=O)N1C[C@@H](C)C[C@H]1c1nc(-c2ccc(-c3ccc(C(=O)Nc4ccc(N5C[C@H](C)N(C(=O)[C@@H](C)NC(=O)C6CC6)C[C@H]5C)nc4)cc3OC(F)(F)F)cc2)c[nH]1)C(C)C [Example 4-40] | D (D represents pEC50>10 (EC50<0.1 nM))
11 | COC(=O)N[C@H](C(=O)N1C[C@@H](C)C[C@H]1c1nc(-c2ccc(-c3cc(F)c(NC(=O)c4ccc(N5CCN(C(=O)c6c[nH]cn6)C[C@H]5C)nc4)cc3OC(F)(F)F)cc2)c[nH]1)C(C)C [Example 1-25] | D (D represents pEC50>10 (EC50<0.1 nM))
12 | COC(=O)N[C@H](C(=O)N1C[C@@H](C)C[C@H]1c1nc(-c2ccc(-c3cc(Cl)c(NC(=O)c4ccc(N5CCN(C(=O)C6CC67CC7)C[C@H]5C)nc4)cc3C(F)(F)F)cc2)c[nH]1)C(C)C (stereo partly drawn) [Example 1-89] | D (D represents pEC50>10 (EC50<0.1 nM))
13 | CNC(=O)N1CCC[C@@]1(C)C(=O)N1C[C@@H](C)N(c2ccc(NC(=O)c3ccc(-c4ccc(-c5c[nH]c([C@@H]6C[C@H](C)CN6C(=O)[C@@H](NC(=O)OC)C(C)C)n5)cc4)c(OC(F)(F)F)c3)cn2)C[C@@H]1C [Example 4-9] | D (D represents pEC50>10 (EC50<0.1 nM))
14 | COC(=O)N[C@H](C(=O)N1C[C@@H](C)C[C@H]1c1nc(-c2ccc(-c3cc(Cl)c(NC(=O)c4ccc(N5CCN(C(=O)c6c[nH]cn6)C[C@H]5C)nc4)cc3C(F)(F)F)cc2)c[nH]1)C(C)C [Example 1-32] | D (D represents pEC50>10 (EC50<0.1 nM))
15 | COC(=O)N[C@H](C(=O)N1C[C@@H](OC)C[C@H]1c1nc(-c2ccc(-c3ccc(NC(=O)c4ccc(N5CCN(C(=O)C(C)(C)CO)C[C@H]5C)nc4)cc3OC(F)(F)F)cc2)c[nH]1)C(C)C [Example 27-7] | D (D represents pEC50>10 (EC50<0.1 nM))
16 | COC(=O)NC(C(=O)N1CC(F)CC1c1nc(-c2ccc(-c3cc(Cl)c(NC(=O)c4ccc(N5CCN(C(=O)C(C)(C)C)CC5C)nc4)cc3OC(F)(F)F)cc2)c[nH]1)C(C)C (stereo not drawn) [Example 29-2] | C (C represents pEC50 between and 9 and about 10, (EC50 between 1 nM and 0.1 nM))
17 | COC(=O)N[C@H](C(=O)N1C[C@H](C)C[C@H]1c1nc(-c2ccc(-c3cc(Cl)c(C(=O)Nc4ccc(N5CCN(C(=O)C(C)(C)C)C[C@H]5C)nc4)cc3OC(F)(F)F)cc2)c[nH]1)C1CCOCC1 [24-5] | C (C represents pEC50 between and 9 and about 10, (EC50 between 1 nM and 0.1 nM))
18 | COC(=O)N[C@H](C(=O)N1C[C@H](O)C[C@H]1c1nc(-c2ccc(-c3ccc(NC(=O)c4ccc(N5CCN(C(=O)[C@]6(C)CCCN6C(=O)OC)C[C@H]5C)nc4)cc3)cc2)c[nH]1)C(C)C [Example 26-1] | A (A represents a pEC50 value between 6 and 8 (EC50 between 1 μM and 10 nM))
19 | COC(=O)NC(C(=O)N1C[C@@H](C)C[C@H]1c1nc(-c2ccc(-c3cc(Cl)c(NC(=O)c4ccc(N5CCN(C(=O)C(C)(C)CO)C[C@H]5C)nc4)cc3C(F)(F)F)cc2)c[nH]1)C1CCS(=O)(=O)CC1 (single isomer, unassigned) [Example 19-1] | D (D represents pEC50>10 (EC50<0.1 nM))
20 | COC(=O)N[C@H](C(=O)N1C[C@@H](O)C[C@H]1c1nc(-c2ccc(-c3cc(Cl)c(NC(=O)c4ccc(N5CCN(C(=O)C(C)(C)CO)C[C@H]5C)nc4)cc3OC(F)(F)F)cc2)c[nH]1)C(C)C [Example 26-9] | C (C represents pEC50 between and 9 and about 10, (EC50 between 1 nM and 0.1 nM))
21 | COC(=O)N[C@H](C(=O)N1C[C@@H](C)C[C@H]1c1nc(-c2ccc(-c3cc(Cl)c(NC(=O)c4ccc(N5CCN(C(=O)C6CC6(Cl)Cl)C[C@H]5C)nc4)cc3OC(F)(F)F)cc2)c[nH]1)C(C)C (single isomer, unassigned) [Example 1-57] | D (D represents pEC50>10 (EC50<0.1 nM))
22 | COC(=O)N[C@H](C(=O)N1C[C@@H](C)C[C@H]1c1nc(-c2ccc(-c3cc(Cl)c(NC(=O)c4ccc(N5CCN(C(=O)C6CC6)C[C@H]5C)nc4)cc3C(F)(F)F)cc2)c[nH]1)C(C)C [Example 1-54] | D (D represents pEC50>10 (EC50<0.1 nM))
23 | CNC(=O)N1CCC[C@@H]1C(=O)N1CCN(c2ccc(C(=O)Nc3cc(OC(F)(F)F)c(-c4ccc(-c5c[nH]c([C@@H]6C[C@H](C)CN6C(=O)[C@@H](NC(=O)OC)C(C)C)n5)cc4)cc3Cl)cn2)[C@H](C)C1 [Example 1-38] | D (D represents pEC50>10 (EC50<0.1 nM))

Same assay, conditions: Hepatitis C virus, read-out: Genotype 1a, HCV genotype 1a replicon

Row | SMILES | EC50
24 | COC(=O)N[C@H](C(=O)N1C[C@@H](SC)C[C@H]1c1nc(-c2ccc(-c3ccc(C(=O)Nc4ccc(N5CCN(C(=O)C(C)(C)C)C[C@H]5C)nc4)cc3OC(F)(F)F)cc2)c[nH]1)C(C)C [Example 6-15] | 100 to 1000 pM
25 | COC(=O)N[C@H](C(=O)N1C[C@@H](C)C[C@H]1c1nc(-c2ccc(-c3cc(Cl)c(NC(=O)c4ccc(N5CCN(C(=O)C6CCCN6C(N)=O)C[C@H]5C)nc4)cc3OC(F)(F)F)cc2)c[nH]1)C(C)C (stereo partly drawn) [Example 12-6] | < 100 pM
26 | COC(=O)CC(=O)NCC(C)(C)C(=O)N1CCN(c2ccc(C(=O)Nc3cc(OC(F)(F)F)c(-c4ccc(-c5c[nH]c([C@@H]6C[C@H](C)CN6C(=O)[C@@H](NC(=O)OC)C(C)C)n5)cc4)cc3Cl)cn2)[C@H](C)C1 [Example 12-33] | 100 to 1000 pM
27 | COC(=O)N[C@H](C(=O)N1C[C@@H](C)C[C@H]1c1nc(-c2ccc(-c3cc(Cl)c(NC(=O)c4ccc(N5CCN(C(=O)C(C)(C)CNC(=O)C(C)(C)C)C[C@H]5C)nc4)cc3OC(F)(F)F)cc2)c[nH]1)C(C)C [Example 12-38] | 100 to 1000 pM
28 | COCC1(C(=O)N2CCN(c3ccc(C(=O)Nc4cc(OC(F)(F)F)c(-c5ccc(-c6c[nH]c([C@@H]7C[C@H](C)CN7C(=O)[C@@H](NC(=O)OC)C(C)C)n6)cc5)cc4Cl)cn3)[C@H](C)C2)CC1 [Example 12-44] | < 100 pM
29 | COC(=O)N[C@H](C(=O)N1CC2(C[C@H]1c1nc(-c3ccc(-c4ccc(NC(=O)c5ccc(N6CCN(C(=O)[C@]7(C)CCCN7C(=O)[C@@H](NC(=O)OC)C(C)C)C[C@H]6C)nc5)cc4OC(F)(F)F)cc3)c[nH]1)OCCO2)C(C)C [Example 5-1] | < 100 pM
30 | COC(=O)N[C@@H](CCCCN)C(=O)N1C[C@@H](C)C[C@H]1c1nc(-c2ccc(-c3cc(Cl)c(NC(=O)c4ccc(N5CCN(C(=O)C(C)(C)C)C[C@H]5C)nc4)cc3OC(F)(F)F)cc2)c[nH]1 [Example 13-33] | < 100 pM
